Source: patent publication US10159667B2, “Composition containing a DPP-IV inhibitor for preventing or treating renal diseases” (DONG-A ST CO., LTD, priority 2013, dated 2018)
Marks after values point to notes of the source that are not given here.

Columns and labels:
[1] = tested on: db/db mice; assay: Weight, food intake, water intake, fasting blood glucose, urine output, HbA1c and blood pressure in db/db mice; assay type: in vivo
Description: 6-week old mice were used. db/m mice were set as the non-diabetic control group (7 for each stage, n=28), and divided db/db mice into the diabetic group (7 for each stage, n=28) and DA1229 administration group (n=8). 0.3% (W/W, 300 mg/kg/day) of DA1229, a DPP-IV inhibitor, was mixed with feed and provided to the DA1229 administration group while only feed was provided to the diabetic group. Weight, food intake, water intake, fasting blood glucose, urine output, hemoglobin A1c value (HbA1c) and blood pressure (i.e. systolic blood pressure, SBP) of the non-diabetic control group (db/m control group) and the diabetic group (db/db) were measured at week 0, 4, 8 and 12 of administration; and that of the DA1229 administration group were measured at week 12. HbA1c was measured by using the DCA 2000+ (Bayer Healthcare, Wuppertal, Germany) Analyzer.

[2] = tested on: db/db mice; assay: Blood lipid concentration in db/db mice; assay type: in vivo; details: 12th week of administration, FIG. 4
Description: In diabetic patients, blood lipids are tend to be increased and lipids are tend to be deposited in liver (i.e. hepatic steatosis) due to failure of lipid metabolism. Following experiment has been conducted to confirm whether DA1229 improves lipid metabolism. […] Concentrations of lipids, that are total cholesterol, triglyceride, HDL-cholesterol and LDL-cholesterol, of plasma of the non-diabetic control group, the diabetic group and the DA1229 administration group were measured at 12th week of administration. Concentration of total cholesterol and triglyceride were measured by using a ELISA reader (Micro-Quant, Bio-Tek Instruments, Colmar, France) after using the GPO-Trinder kit (Sigma, St. Louis, Mo., USA); and HDL-cholesterol and LDL-cholesterol were measured by using a TBA-200FR NEO (Toshiba, Japan).

[3] = tested on: db/db mice; assay: Hepatic steatosis: H&E-stained liver sections; assay type: in vivo; details: 12th week of administration, FIG. 5
Text: Liver tissues collected from the non-diabetic control group, the diabetic group and the DA1229 administration group were sectioned by a microtome and embedded in paraffin after alcohol dehydration at 12th week of administration. These sections were stained by Hematoxylin-eosin, and then lipid deposition was observed by using a microscope (STM6-LM Olympus NDT Inc, USA) (see FIG. 5).

[4] = tested on: db/db mice; assay: Plasma creatinine by modified Jaffe method; assay type: in vivo
[5] = tested on: db/db mice; assay: Microalbuminuria: 24 h urinary albumin excretion by ELISA; assay type: in vivo; details: FIG. 6
Description: When diabetes is progressed, phenomena of renal glomeruli destruction and protein (albumin) excretion incur, and microalbuminuria is directed to a case when the amount of the excretion is small. Microalbuminuria is one of the initial indices of renal diseases, and the gomeruli destruction becomes more severe as diabetes progresses. Accordingly the amount of protein excretion will increase. […] Microalbuminuria was observed by measuring the amount of urinary excretion of albumin during 24 hours in the non-diabetic control group, the diabetic group and the DA1229 administration group at week 0, 4, 8 and 12 of administration. The amount of albumin excretion was measured by using a ELISA reader (Micro-Quant, Bio-Tek Instruments, Colmar, France) after using the ELISA kit (Shibayagi, Shibukawa, Japan).

[6] = tested on: db/db mice; assay: Histological evaluation of renal mesangial expansion (PAS staining); assay type: in vivo; details: 12th week of administration, FIG. 7
Text: Mesangial expansion incurs in kidney when renal destruction progresses in renal diseases. Therefore, glomerular mesangial expansion in the non-diabetic control group, the diabetic group and the DA1229 administration group was observed. […] Renal glomerular tissues were collected and sectioned by a microtome and embedded in paraffin after alcohol dehydration. The sections were stained by using PAS (periodic acid-Schiff); observed by using a microscope (STM6-LM Olympus NDT Inc, USA) (see FIG. 7B); and scored by a pathologist (see FIG. 7A.)

[7] = tested on: db/db mice; assay: Renal fibrosis: immunohistochemistry of TGF β1, Type IV collagen and PAI-1; assay type: in vivo; details: 12th week
Text: Renal glomerular tissues were collected and sectioned by a microtome and embedded in paraffin after alcohol dehydration. The sections were stained via immunohistochemistry; each of deposited TGF β1, Type IV collagen and PAI-1 in kidney was observed by using a microscope (STM6-LM Olympus NDT Inc, USA) (see FIG. 8); and degree and range of the staining were scored by a pathologist (see FIG. 9).

[8] = tested on: db/db mice; assay: Renal lipid metabolism: mRNA expression of ABCA1 and HMG-CoA reductase; assay type: in vivo; details: 12th week, FIGS. 11 and 12
[9] = tested on: db/db mice; assay: Urinary nephrin excretion by EIA, normalized by creatinine; assay type: in vivo; details: FIG. 13
Text: Nephrin is a protein expressed on cell membrane of podocyte which forms glomerular filtration membrane. Nephrin forms a filtration barrier by binding to adjacent podocyte. When proteinuria incurs due to glomerular damage, nephrin barrier is damaged because nephrin expression in podocyte decreases, and accordingly, urinary excretion of nephrin increases. Therefore, urinary excretion of nephrin and nephrin expression in kidney in the non-diabetic control group, the diabetic group and the DA1229 administration group were observed. […] It was then normalized by creatinine excretion, which is proportional to a volume of urination (measured by the modified Jaffe method) and shown in the left-hand side graph in FIG. 13.

[10] = tested on: db/db mice; assay: Renal nephrin expression by immunostaining; assay type: in vivo; details: FIG. 13
Text: Nephrin is a protein expressed on cell membrane of podocyte which forms glomerular filtration membrane. Nephrin forms a filtration barrier by binding to adjacent podocyte. When proteinuria incurs due to glomerular damage, nephrin barrier is damaged because nephrin expression in podocyte decreases, and accordingly, urinary excretion of nephrin increases. Therefore, urinary excretion of nephrin and nephrin expression in kidney in the non-diabetic control group, the diabetic group and the DA1229 administration group were observed. […] In addition, kidneys were isolated from each group; renal tissues were separated, immunostained with nephrin-specific antibody, and observed by using a microscope. Result is shown in right-hand side of FIG. 13. It is shown that observed nephrin was few in the diabetic group compared to the non-diabetic control group, but much in the DA1229 administration group.

[11] = tested on: non-diabetic renal disease mouse model; assay: Microalbuminuria and nephrin excretion in adriamycin (ADX) non-diabetic renal disease mouse model; assay type: in vivo, mice; details: for urinary excretion of albumin / urinary excretion of nephrin: ADX 13 mg/kg i.v. mice, vs control
Description: Non-diabetic renal diseases occurs via induction of glomerular podocyte damage when injecting adriamycin (hereinafter, ADX) that is an anti-cancer agent. Thirty mice at the age of 6 weeks were divided into 3 groups (n=10/group) after single intravenous injection of 13 mg/kg of ADX. For the first group, the administration of DA1229 was initiated immediately and maintained while renal disease incurred and developed. For the second group, administration of DA1229 was performed 3 weeks after single ADX injection, for the purpose of administering DA1229 after renal disease was progressed to some degree. The third group was set as a control group without any additional action. DA1229 was administered as a mixture with diet at 0.3% (W/W, 300 mg/kg/day) to the first and second groups. Only feed was provided to the control group. Microalbuminuria and nephrin excretion of each group were measured at 5th week of administration.

[12] = tested on: podocytes; assay: Nephrin expression in podocytes under glucose and angiotensin II stimuli (western blot); assay type: cell-based; details: 10 nM, 72 hours, 30 mM glucose and 100 nM angiotensin II, FIG. 18
Description: Effects of DA1229, linagliptin, saxagliptin and sitagliptin on nephrin expression under stimuli of glucose and angiotensin II that are same to the stimulation occurring in diabetes were observed below.
Podocytes were cultured for 72 hours in media containing 30 mM of glucose, 100 nM of angiotensin II; and any one of 10 nM of DA1229, 10 nM of linagliptin, 1 nM of saxagliptin and 10 nM of sitagliptin. After that, the media were removed; cells were lysed; and changes of intracellularly expressed nephrin were measured through western blot by using polyclonal antibody (Santa Crúz, SC-19000.)

[13] = tested on: db/db mice; assay: Renal fibrosis: mRNA expression of TGF β1, Type IV collagen and PAI-1 by real-time PCR; details: 12th week, relative to β-actin, FIG. 10
[14] = DA1229 0.3% W/W in feed (300 mg/kg/day), wk 12, mean ± SEM
[15] = DA1229 administered for 12 weeks

CC(C)(C)OC[C@@H]1C(=O)NCCN1C(=O)C[C@H](N)Cc1cc(F)c(F)cc1F [DA1229, (R)-4-{(R)-3-amino-4-(2,4,5-trifluorophenyl)butanoyl}-3-(t-butoxymethyl)piperazin-2-one]
Daily Water Intake [1, 14]: 8.6 ± 0.4**^,# g | Fasting Blood Glucose [1, 14]: 466 ± 66 mg/dL | HbAlc [1, 14]: 8.58 ± 0.79 % | Urine Output [1, 14]: 1.07 ± 0.29 mL/day | fasting blood glucose compared to the diabetic group [1, 15]: markedly decreased | urine output compared to the diabetic group [1, 15]: no significant differences | water intake compared to the diabetic group [1, 15]: markedly decreased | plasma LDL-cholesterol concentration [2]: restored to the level of the non-diabetic control group | plasma total cholesterol concentration [2]: restored to the level of the non-diabetic control group | plasma triglyceride concentration [2]: restored to the level of the non-diabetic control group | lipid deposition of liver tissues [3]: restored to the level of the non-diabetic control group | Plasma Creatinine ([4]; DA1229 300 mg/kg/day in feed, wk 12, ± SEM): 29.0 ± 2.0 µmol/L | plasma creatinine compared to the diabetic group ([4]; wk 12): markedly decreased | microalbuminuria until 4th week [5]: not observed | amount of urinary excretion of albumin after 4th week ([5]; vs diabetic group): much smaller than that of the diabetic group | glomerular mesangial expansion [6]: improved to a level close to the non-diabetic control group | TGF β1 deposited in kidney (immunohistochemistry) ([7]; FIGS. 8A and 9): markedly decreased | Type IV collagen deposited in kidney (immunohistochemistry) ([7]; FIGS. 8B and 9): decreased to the level of the non-diabetic control group | PAI-1 deposited in kidney (immunohistochemistry) ([7]; FIGS. 8C and 9): decreased to the level of the non-diabetic control group | renal mRNA expression of ABCA1 [8]: markedly increased | renal mRNA expression of HMG-CoA reductase [8]: decreased to the level of the non-diabetic control group | content of nephrin in urine [9]: markedly decreased | nephrin observed in renal tissue (immunostaining) [10]: much | urinary excretion of albumin ([11]; first group: DA1229 300 mg/kg/day started with induction of renal disease, FIG. 14A): significantly decreased | urinary excretion of nephrin ([11]; first group: DA1229 300 mg/kg/day started with induction of renal disease, FIG. 14B): significantly decreased | urinary excretion of albumin ([11]; second group: DA1229 300 mg/kg/day started 3 weeks after ADX, FIG. 15A): significantly decreased | urinary excretion of nephrin ([11]; second group: DA1229 300 mg/kg/day started 3 weeks after ADX, FIG. 15B): significantly decreased | effect of decreasing albumin excretion over time ([11]; ADX mice, second group, FIG. 15): became more significant as time passed | nephrin expression in podocytes [12]: maintained equally to the control group | renal mRNA expression of PAI-1 [13]: markedly decreased | renal mRNA expression of TGF β1 [13]: markedly decreased | renal mRNA expression of Type IV collagen [13]: markedly decreased

N[C@@H](CC(=O)N1CCn2c(nnc2C(F)(F)F)C1)Cc1cc(F)c(F)cc1F [sitagliptin, reference compound]
nephrin expression in podocytes [12]: almost no difference compared to the group treated only with glucose and angiotensin II
